Results from US11597703B2, “Caspase inhibitors and methods of use thereof” (Histogen Inc., priority 2019, dated 2023).
Values belong to the compound of their own block, whether it stands above or below them.

How the values were obtained:
Caspase-1 = biological target: T1, Caspase-1 (Homo sapiens, UniProt P29466); assay: Caspase-1 enzyme inhibition assay (Ac-YVAD-pNA substrate), IC50; assay type: biochemical
T1 construct: purchased Enzo Biosciences
T1 sequence (P29466 120-297 limits assumed): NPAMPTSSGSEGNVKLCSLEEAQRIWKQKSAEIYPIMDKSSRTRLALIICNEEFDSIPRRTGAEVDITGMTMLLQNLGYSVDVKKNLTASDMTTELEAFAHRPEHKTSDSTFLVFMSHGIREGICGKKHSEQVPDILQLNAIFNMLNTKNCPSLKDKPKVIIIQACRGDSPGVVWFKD
T1 sequence (P29466 317-404 limits assumed): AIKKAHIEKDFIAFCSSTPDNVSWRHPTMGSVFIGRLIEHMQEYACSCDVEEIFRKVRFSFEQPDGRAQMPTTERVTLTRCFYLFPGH
Protocol: (§1) Human caspases were purchased from Enzo Biosciences and used according to the manufacturer's instructions. An exemplary caspase assay, for Caspase-1, is provided below:
Caspase-1 was diluted to 10 U/μl in assay buffer consisting of 50 mM HEPES, pH 7.4, 100 mM NaCl, 0.1% CHAPS, 1 mM EDTA, 10% glycerol and 10 mM DTT.
45 μl of assay buffer was added into ½ volume microtiter plate. The plate was allowed to equilibrate to assay temperature. 5 μl of Caspase-1 (10 U/μl) was added to each appropriate well. Two 2 blank wells containing assay buffer alone without Caspase-1 were included on the plate.
The reaction was started by the addition of 50 μl Ac-YVAD-pNA substrate, for a final substrate concentration of 200 μM. The reaction was continuously monitored at 405 nm. The data was graphed as OD405 nm vs time, and the slope was determined over the linear portion of the curve. The rates in OD/min were converted to substrate/min using an extinction coefficient for p-nitroaniline of 10,500M-1 cm-1, and were adjusted for pathlength of sample. […]

Caspase 6 = biological target: T2, Caspase 6 (Homo sapiens, UniProt P55212); assay: Caspase 6 enzymatic inhibition assay, IC50; assay type: biochemical; conditions: read-out: Caspase 6 enzyme inhibition IC50
T2 construct: purchased Enzo Biosciences
T2 sequence (P55212 24-179 limits assumed): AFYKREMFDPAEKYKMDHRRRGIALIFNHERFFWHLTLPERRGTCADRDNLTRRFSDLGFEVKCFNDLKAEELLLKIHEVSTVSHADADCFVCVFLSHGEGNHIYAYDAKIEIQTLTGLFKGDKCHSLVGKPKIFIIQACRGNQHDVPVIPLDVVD
T2 sequence (P55212 194-293 limits assumed): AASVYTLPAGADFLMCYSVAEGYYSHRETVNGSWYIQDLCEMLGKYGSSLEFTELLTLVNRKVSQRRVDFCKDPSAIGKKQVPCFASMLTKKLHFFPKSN
Protocol: as §1
(§2) Enzymatic assays were conducted for Caspase-3, 6 and 7 activity according to the manufacture's instructions.

Caspase-3 = biological target: T3, Caspase-3 (Homo sapiens, UniProt P42574); assay: Caspase-3 enzymatic inhibition assay, IC50; assay type: biochemical; conditions: read-out: Caspase 3 enzyme inhibition IC50
T3 construct: purchased Enzo Biosciences
T3 sequence (P42574 29-175 limits assumed): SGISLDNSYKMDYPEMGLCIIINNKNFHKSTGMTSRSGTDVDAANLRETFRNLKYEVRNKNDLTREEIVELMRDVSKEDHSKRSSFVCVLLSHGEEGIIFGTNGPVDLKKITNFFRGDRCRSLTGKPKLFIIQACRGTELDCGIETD
T3 sequence (P42574 176-277 limits assumed): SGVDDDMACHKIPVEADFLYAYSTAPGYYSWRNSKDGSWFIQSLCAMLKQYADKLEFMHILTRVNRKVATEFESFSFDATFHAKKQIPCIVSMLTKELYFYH
Protocol: as §1, §2

Caspase 7 = biological target: T4, Caspase 7 (Homo sapiens, UniProt P55210); assay: Caspase 7 enzymatic inhibition assay, IC50; assay type: biochemical; conditions: read-out: Caspase 7 enzyme inhibition IC50
T4 construct: purchased Enzo Biosciences
T4 sequence (P55210 24-198 limits assumed): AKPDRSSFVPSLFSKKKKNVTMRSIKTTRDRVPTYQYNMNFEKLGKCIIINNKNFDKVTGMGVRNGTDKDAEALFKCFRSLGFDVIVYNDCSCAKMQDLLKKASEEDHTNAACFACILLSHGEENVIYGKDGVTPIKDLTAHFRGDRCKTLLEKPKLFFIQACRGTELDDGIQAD
T4 sequence (P55210 207-303 limits assumed): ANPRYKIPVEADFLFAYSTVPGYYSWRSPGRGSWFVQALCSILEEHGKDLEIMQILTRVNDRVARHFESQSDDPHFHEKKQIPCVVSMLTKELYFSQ
Protocol: as §1, §2

[1] = Rodent model of ulcerative colitis induced by TNBS; assay type: in vivo, Sprague-Dawley rats
Protocol: Compounds of the present invention were tested by oral administration in a rodent model of ulcerative colitis (UC). Ulcerative colitis was induced in Sprague-Dawley rats by instillation of 48 mg/kg […], (TNBS), through the rectum. Testing included 4 active treatment groups and one vehicle control group.
Effect of TNBS-Induced UC in Vehicle Treated Control Group, (Group 1):
Rats were administered of 0.5% vehicle carboxy methylcellulose, (CMC), twice daily starting 24 hours after the instillation of TNBS.
At the termination of the study on DAY 7, the average colon weight in the diseased rats was 5.904±2.208 g, the average colon length was 11.0±1.4 cm and the average distal colon width was 3.1±1.0 cm. Severe adhesions involving multiple intestinal loops, severe stricture resulting in proximal colon distension, ulcers of 6.4±0.4 cm in length, and colonic wall thickness of 3.5±0.8 mm combined to yield an overall colonic score of 11.5±0.8 in the diseased rats. […] Subacute inflammation (sub/mucosal and transmural/serosal were graded separately) was characterized by infiltration and aggregation of neutrophils, eosinophils, lymphocytes, plasma cells, and macrophages. Mucosal necrosis was characterized by damage to, necrosis of, or complete loss of colonic glands. Erosions were characterized by coagulative necrosis or loss of surface epithelium superficial to the muscularis mucosae. Submucosal edema was characterized by expansion of the submucosa by clear space or pale eosinophilic fluid, variably accompanied by dilation of lymphatic vessels and similar edematous expansion of the lamina propria. Epithelial hyperplasia was characterized by elongation of colonic glands and increased numbers of epithelial mitotic figures.

[2] = 10 mg/kg once daily oral, starting 24 hours after TNBS
[3] = Group 2, prednisolone 10 mg/kg once daily oral, DAY 7

Compound: C[C@H](NC(=O)C(=O)Nc1c(F)cccc1F)C(=O)N[C@@H](CCC(=O)OCc1ccccc1)C(=O)COc1c(F)c(F)cc(F)c1F [Example 28, benzyl(S)-4-((S)-2-(2-((2,6-difluorophenyl)amino)-2-oxoacetamido)propanamido)-5-oxo-6-(2,3,5,6-tetrafluorophenoxy)hexanoate]
- IC50 (Caspase-1): ≤ 0.01 µM
- IC50 (Caspase 6): ≥ 1 µM
- IC50 (Caspase-3): ≥ 1 µM
- IC50 (Caspase 7): ≥ 1 µM

Compound: C[C@H](NC(=O)C(=O)Nc1ccc(Cl)cn1)C(=O)N[C@@H](CCC(=O)O)C(=O)COc1c(F)c(F)cc(F)c1F [Example 29, (S)-4-((S)-2-(2-((5-chloropyridin-2-yl)amino)-2-oxoacetamido)propanamido)-5-oxo-6-(2,3,5,6-tetrafluorophenoxy)hexanoic acid]
- IC50 (Caspase-1): ≤ 0.01 µM
- IC50 (Caspase 6): ≥ 1 µM
- IC50 (Caspase-3): ≥ 1 µM
- IC50 (Caspase 7): ≥ 1 µM

Compound: CC(=O)c1ccc(NC(=O)C(=O)N[C@@H](C)C(=O)N[C@@H](CCC(=O)O)C(=O)COc2c(F)c(F)cc(F)c2F)cc1 [Example 30, (S)-4-((S)-2-(2-((4-acetylphenyl)amino)-2-oxoacetamido)propanamido)-5-oxo-6-(2,3,5,6-tetrafluorophenoxy)hexanoic acid]
- IC50 (Caspase-1): ≤ 0.01 µM
- IC50 (Caspase 6): ≥ 1 µM
- IC50 (Caspase-3): ≥ 1 µM
- IC50 (Caspase 7): ≥ 1 µM

Compound: C[C@H](NC(=O)C(=O)Nc1cccc(-c2nnn[nH]2)c1)C(=O)N[C@@H](CCC(=O)O)C(=O)COc1c(F)c(F)cc(F)c1F [Example 31, (S)-4-((S)-2-(2-((3-(1H-tetrazol-5-yl)phenyl)amino)-2-oxoacetamido)propanamido)-5-oxo-6-(2,3,5,6-tetrafluorophenoxy)hexanoic acid]
- IC50 (Caspase-1): ≤ 0.01 µM
- IC50 (Caspase 6): ≥ 1 µM
- IC50 (Caspase-3): ≥ 1 µM
- IC50 (Caspase 7): ≥ 1 µM

Compound: C[C@H](NC(=O)C(=O)Nc1ccccc1C#N)C(=O)N[C@@H](CCC(=O)O)C(=O)COc1c(F)c(F)cc(F)c1F [Example 32, (S)-4-((S)-2-(2-((2-cyanophenyl)amino)-2-oxoacetamido)propanamido)-5-oxo-6-(2,3,5,6-tetrafluorophenoxy)hexanoic acid]
- IC50 (Caspase-1): ≤ 0.01 µM
- IC50 (Caspase 6): ≥ 1 µM
- IC50 (Caspase-3): ≥ 1 µM
- IC50 (Caspase 7): ≥ 1 µM

Compound: C[C@]12C=CC(=O)C=C1CC[C@@H]1[C@@H]2[C@@H](O)C[C@@]2(C)[C@H]1CC[C@]2(O)C(=O)CO [Prednisolone, reference compound]
- all measured colon parameters [1, 2]: significantly improved
- animal health as reflected by body weight [1, 2]: improved animal health by DAY 4
- average inhibition of the histological parameters [1, 2]: 40%
- reduction in the overall colonic score [1, 2]: 67%
- colon histology: Edema, Submucosal, Mean [1, 3]: 2.3
- colon histology: Erosion/ Ulceration, Mean [1, 3]: 2.9
- colon histology: Hyperplasia, Epithelial, Mean [1, 3]: 2.9
- colon histology: Necrosis, Mucosal/ Gland Loss, Mean [1, 3]: 2.9
- colon histology: SUM Score, Mean [1, 3]: 16.3
- colon histology: Subacute Inflammation, Mucosal/ Submucosal, Mean [1, 3]: 3.5
- colon histology: Subacute Inflammation, Transmural/ Serosal, Mean [1, 3]: 2.8
- average animal weight, Mean ([1]; Group 2, prednisolone 10 mg/kg once daily oral, study day 0): 235 g
- average animal weight, Mean ([1]; Group 2, prednisolone 10 mg/kg once daily oral, study day 1): 232 g
- average animal weight, Mean ([1]; Group 2, prednisolone 10 mg/kg once daily oral, study day 2): 221 g
- average animal weight, Mean ([1]; Group 2, prednisolone 10 mg/kg once daily oral, study day 3): 223 g
- average animal weight, Mean ([1]; Group 2, prednisolone 10 mg/kg once daily oral, study day 4): 223 g
- average animal weight, Mean ([1]; Group 2, prednisolone 10 mg/kg once daily oral, study day 5): 227 g
- average animal weight, Mean ([1]; Group 2, prednisolone 10 mg/kg once daily oral, study day 6): 227 g
- average animal weight, Mean ([1]; Group 2, prednisolone 10 mg/kg once daily oral, study day 7): 229 g
- average animal weight, Mean ([1]; Group 2, prednisolone 10 mg/kg once daily oral, study day −1): 249 g
- average animal weight, Mean ([1]; Group 2, prednisolone 10 mg/kg once daily oral, study day −5): 222 g

Second part, the compound after the results:

- IC50 (Caspase-1): ≤ 0.01 µM
- IC50 (Caspase 6): ≥ 1 µM
- IC50 (Caspase-3): ≥ 1 µM
- IC50 (Caspase 7): ≥ 1 µM
Compound: Cc1ccccc1NC(=O)C(=O)N[C@@H](C)C(=O)N[C@@H](CCC(=O)O)C(=O)COc1c(F)c(F)cc(F)c1F [Example 21, (S)-4-((S)-2-(2-((2-methylphenyl)amino)-2-oxoacetamido)propanamido)-5-oxo-6-(2,3,5,6-tetrafluorophenoxy)hexanoic acid]

- IC50 (Caspase-1): ≤ 0.01 µM
- IC50 (Caspase 6): ≥ 1 µM
- IC50 (Caspase-3): ≥ 1 µM
- IC50 (Caspase 7): ≥ 1 µM
Compound: COc1ccccc1NC(=O)C(=O)N[C@@H](C)C(=O)N[C@@H](CCC(=O)O)C(=O)COc1c(F)c(F)cc(F)c1F [Example 22, (S)-4-((S)-2-(2-((2-methyoxyphenyl)amino)-2-oxoacetamido)propanamido)-5-oxo-6-(2,3,5,6-tetrafluorophenoxy)hexanoic acid]

- IC50 (Caspase-1): ≤ 0.01 µM
- IC50 (Caspase 6): ≥ 1 µM
- IC50 (Caspase-3): ≥ 1 µM
- IC50 (Caspase 7): ≥ 1 µM
Compound: COc1cccc(NC(=O)C(=O)N[C@@H](C)C(=O)N[C@@H](CCC(=O)O)C(=O)COc2c(F)c(F)cc(F)c2F)c1 [Example 23, (S)-4-((S)-2-(2-((3-methyoxyphenyl)amino)-2-oxoacetamido)propanamido)-5-oxo-6-(2,3,5,6-tetrafluorophenoxy)hexanoic acid]

- IC50 (Caspase-1): ≤ 0.01 µM
- IC50 (Caspase 6): ≥ 1 µM
- IC50 (Caspase-3): ≥ 1 µM
- IC50 (Caspase 7): ≥ 1 µM
Compound: COc1ccc(NC(=O)C(=O)N[C@@H](C)C(=O)N[C@@H](CCC(=O)O)C(=O)COc2c(F)c(F)cc(F)c2F)cc1 [Example 24, (S)-4-((S)-2-(2-((4-methyoxyphenyl)amino)-2-oxoacetamido)propanamido)-5-oxo-6-(2,3,5,6-tetrafluorophenoxy)hexanoic acid]

- IC50 (Caspase-1): ≤ 0.01 µM
- IC50 (Caspase 6): ≥ 1 µM
- IC50 (Caspase-3): ≥ 1 µM
- IC50 (Caspase 7): ≥ 1 µM
Compound: Cc1ccc(NC(=O)C(=O)N[C@@H](C)C(=O)N[C@@H](CCC(=O)O)C(=O)COc2c(F)c(F)cc(F)c2F)nc1 [Example 25]

- IC50 (Caspase-1): ≤ 0.01 µM
- IC50 (Caspase 6): ≥ 1 µM
- IC50 (Caspase-3): ≥ 1 µM
- IC50 (Caspase 7): ≥ 1 µM
Compound: C[C@H](NC(=O)C(=O)Nc1cccc(C(F)(F)F)c1)C(=O)N[C@@H](CCC(=O)O)C(=O)COc1c(F)c(F)cc(F)c1F [Example 26, (S)-5-oxo-4-((S)-2-(2-oxo-2-((3-(trifluoromethyl)phenyl)amino)acetamido)propanamido)-6-(2,3,5,6-tetrafluorophenoxy) hexanoic acid]

- IC50 (Caspase-1): ≤ 0.01 µM
- IC50 (Caspase 6): ≥ 1 µM
- IC50 (Caspase-3): ≥ 1 µM
- IC50 (Caspase 7): ≥ 1 µM
Compound: C[C@H](NC(=O)C(=O)Nc1ccc(C(F)(F)F)cc1)C(=O)N[C@@H](CCC(=O)O)C(=O)COc1c(F)c(F)cc(F)c1F [Example 27, (S)-5-oxo-4-((S)-2-(2-oxo-2-((4-(trifluoromethyl)phenyl)amino)acetamido)propanamido)-6-(2,3,5,6-tetrafluorophenoxy) hexanoic acid]
